Measured values as given in patent US20090048288A1, “METHOD OF TREATING STRESS-MEDIATED DEPRESSION” (H. Lundbeck A/S, priority 2007, published 2009).
Entries after “also recorded” stand apart in the source; their conditions may differ.

Test system: Chronic mild stress model in rats
Experiment: Chronic mild stress model in rats, serum marker analysis
Conditions: for Apo A1 (Apolipoprotein A1), median value: serum 24 hrs after last drug injection; for reversal of chronic mild stress induced changes in serum inflammatory markers / cytokine levels: rats exposed to chronic mild stress, compared with non-stressed controls
Excerpt: The biochemical changes induced in the animals studied in the stress models lead to increases in inflammatory mediators/markers.
At the end of the present study, terminal serum samples were collected for marker analysis to evaluate the effects of stress with and without drug on the levels of about 60 blood markers.
Serum samples were withdrawn from the tail, without stunning, during the daytime (09:00-17:00) 24 hrs after the last drug injection. Blood was collected into BD vacutainers containing clot activator and gel for serum preparation, inverted 5 times and maintained on ice until centrifugation at 3000 rpm for 10 min at 4° C. Serum was decanted, placed on ice, and at the end of the day stored at −80° C.

Structure (SMILES): CN(C)CCC[C@@]1(c2ccc(F)cc2)OCc2cc(C#N)ccc21 [ESC, escitalopram, reference compound]
- CRP (C Reactive Protein), median value (1st study, 5 mg/kg, serum): 1060.00 µg/mL
- Eotaxin, median value (1st study, 5 mg/kg, serum): 1300.00 pg/mL
- FGF-9 (Fibroblast Growth Factor-9), median value (1st study, 5 mg/kg, serum): 0.90 ng/mL
- GCP-2 (Granulocyte Chemotactic Protein-2), median value (1st study, 5 mg/kg, serum): 0.21 ng/mL
- Growth Hormone, median value (1st study, 5 mg/kg, serum): 1.38 ng/mL
- IL-1alpha (Interleukin-1alpha), median value (1st study, 5 mg/kg, serum): 15.40 pg/mL
- IL-2 (Interleukin-2), median value (1st study, 5 mg/kg, serum): 38.80 pg/mL
- IL-4 (Interleukin-4), median value (1st study, 5 mg/kg, serum): 51.70 pg/mL
- IL-7 (Interleukin-7), median value (1st study, 5 mg/kg, serum): 0.22 ng/mL
- IL-10 (Interleukin-10), median value (1st study, 5 mg/kg, serum): 317.00 pg/mL
- IL-11 (Interleukin-11), median value (1st study, 5 mg/kg, serum): 166.00 pg/mL
- IP-10 (Inducible Protein-10), median value (1st study, 5 mg/kg, serum): 194.00 pg/mL
- IgA (Immunoglobulin A), median value (1st study, 5 mg/kg, serum): 6.54 µg/mL
- Insulin, median value (1st study, 5 mg/kg, serum): 11.30 uIU/mL
- LIF (Leukemia Inhibitory Factor), median value (1st study, 5 mg/kg, serum): 67.20 pg/mL
- Leptin, median value (1st study, 5 mg/kg, serum): 2.62 ng/mL
- Lymphotactin, median value (1st study, 5 mg/kg, serum): 68.00 pg/mL
- M-CSF (Macrophage-Colony Stimulating Factor), median value (1st study, 5 mg/kg, serum): 941.00 ng/mL
- MCP-1 (Monocyte Chemoattractant Protein-1), median value (1st study, 5 mg/kg, serum): 1500.00 pg/mL
- MCP-3 (Monocyte Chemoattractant Protein-3), median value (1st study, 5 mg/kg, serum): 885.00 pg/mL
- MCP-5 (Monocyte Chemoattractant Protein-5), median value (1st study, 5 mg/kg, serum): 0.87 pg/mL
- MIP-1alpha (Macrophage Inflammatory Protein-1alpha), median value (1st study, 5 mg/kg, serum): 244.00 ng/mL
- MIP-1gamma (Macrophage Inflammatory Protein-1gamma), median value (1st study, 5 mg/kg, serum): 11.50 ng/mL
- MIP-2 (Macrophage Inflammatory Protein-2), median value (1st study, 5 mg/kg, serum): 0.09 pg/mL
- MPO (Myeloperoxidase), median value (1st study, 5 mg/kg, serum): 54.60 ng/mL
- NGAL (Lipocalin-2), median value (1st study, 5 mg/kg, serum): 0.22 ng/mL
- Osteopontin, median value (1st study, 5 mg/kg, serum): 310.00 ng/mL
- SAP (Serum Amyloid P), median value (1st study, 5 mg/kg, serum): 178.00 µg/mL
- SCF (Stem Cell Factor), median value (1st study, 5 mg/kg, serum): 16.95 pg/mL
- SGOT (Serum Glutamic-Oxaloacetic Transaminase), median value (1st study, 5 mg/kg, serum): 0.31 µg/mL
- TIMP-1 (Tissue Inhibitor of Metalloproteinase Type-1), median value (1st study, 5 mg/kg, serum): 0.22 ng/mL
- TPO (Thrombopoietin), median value (1st study, 5 mg/kg, serum): 142.00 ng/mL
- Tissue Factor, median value (1st study, 5 mg/kg, serum): 0.15 ng/mL
- VCAM-1 (Vascular Cell Adhesion Molecule-1), median value (1st study, 5 mg/kg, serum): 409.00 ng/mL
- VEGF (Vascular Endothelial Cell Growth Factor), median value (1st study, 5 mg/kg, serum): 106.00 pg/mL
- Apo A1 (Apolipoprotein A1), median value (1st study, 5 mg/kg): 8.40 µg/mL
- reversal of chronic mild stress induced changes in serum inflammatory markers / cytokine levels: inactive at most of these changes

Structure (SMILES): Oc1noc2c1CCNC2 [GBX, 4,5,6,7-tetrahydroisoxazolo[5,4-c]pyridine-3-ol]
- CRP (C Reactive Protein), median value (1st study, 5 mg/kg, serum): 1140.00 µg/mL
- Cystatin-C, median value (1st study, 5 mg/kg, serum): 1165.00 ng/mL
- FGF-9 (Fibroblast Growth Factor-9), median value (1st study, 5 mg/kg, serum): 0.59 ng/mL
- GCP-2 (Granulocyte Chemotactic Protein-2), median value (1st study, 5 mg/kg, serum): 0.19 ng/mL
- Growth Hormone, median value (1st study, 5 mg/kg, serum): 7.67 ng/mL
- IL-1alpha (Interleukin-1alpha), median value (1st study, 5 mg/kg, serum): 11.30 pg/mL
- IL-2 (Interleukin-2), median value (1st study, 5 mg/kg, serum): 31.30 pg/mL
- IL-4 (Interleukin-4), median value (1st study, 5 mg/kg, serum): 29.60 pg/mL
- IL-7 (Interleukin-7), median value (1st study, 5 mg/kg, serum): 0.16 ng/mL
- IL-10 (Interleukin-10), median value (1st study, 5 mg/kg, serum): 249.00 pg/mL
- IL-11 (Interleukin-11), median value (1st study, 5 mg/kg, serum): 128.00 pg/mL
- IL-18 (Interleukin-18), median value (1st study, 5 mg/kg, serum): 0.07 ng/mL
- IP-10 (Inducible Protein-10), median value (1st study, 5 mg/kg, serum): 138.00 pg/mL
- IgA (Immunoglobulin A), median value (1st study, 5 mg/kg, serum): 5.91 µg/mL
- Insulin, median value (1st study, 5 mg/kg, serum): 8.88 uIU/mL
- LIF (Leukemia Inhibitory Factor), median value (1st study, 5 mg/kg, serum): 53.90 pg/mL
- Leptin, median value (1st study, 5 mg/kg, serum): 2.59 ng/mL
- Lymphotactin, median value (1st study, 5 mg/kg, serum): 53.80 pg/mL
- M-CSF (Macrophage-Colony Stimulating Factor), median value (1st study, 5 mg/kg, serum): 865.00 ng/mL
- MCP-1 (Monocyte Chemoattractant Protein-1), median value (1st study, 5 mg/kg, serum): 1185.00 pg/mL
- MCP-3 (Monocyte Chemoattractant Protein-3), median value (1st study, 5 mg/kg, serum): 655.00 pg/mL
- MCP-5 (Monocyte Chemoattractant Protein-5), median value (1st study, 5 mg/kg, serum): 0.77 pg/mL
- MIP-1alpha (Macrophage Inflammatory Protein-1alpha), median value (1st study, 5 mg/kg, serum): 173.00 ng/mL
- MIP-1gamma (Macrophage Inflammatory Protein-1gamma), median value (1st study, 5 mg/kg, serum): 7.95 ng/mL
- MIP-2 (Macrophage Inflammatory Protein-2), median value (1st study, 5 mg/kg, serum): 0.08 pg/mL
- MPO (Myeloperoxidase), median value (1st study, 5 mg/kg, serum): 20.80 ng/mL
- NGAL (Lipocalin-2), median value (1st study, 5 mg/kg, serum): 0.17 ng/mL
- Osteopontin, median value (1st study, 5 mg/kg, serum): 396.00 ng/mL
- SAP (Serum Amyloid P), median value (1st study, 5 mg/kg, serum): 133.00 µg/mL
- SCF (Stem Cell Factor), median value (1st study, 5 mg/kg, serum): 14.85 pg/mL
- SGOT (Serum Glutamic-Oxaloacetic Transaminase), median value (1st study, 5 mg/kg, serum): 0.21 µg/mL
- TIMP-1 (Tissue Inhibitor of Metalloproteinase Type-1), median value (1st study, 5 mg/kg, serum): 0.16 ng/mL
- TPO (Thrombopoietin), median value (1st study, 5 mg/kg, serum): 147.00 ng/mL
- Tissue Factor, median value (1st study, 5 mg/kg, serum): 0.10 ng/mL
- VCAM-1 (Vascular Cell Adhesion Molecule-1), median value (1st study, 5 mg/kg, serum): 361.00 ng/mL
- VEGF (Vascular Endothelial Cell Growth Factor), median value (1st study, 5 mg/kg, serum): 81.00 pg/mL
- Apo A1 (Apolipoprotein A1), median value (1st study, 5 mg/kg): 8.20 µg/mL
- Beta-2 Microglobulin, median value (2nd study, 10 mg/kg, serum): 38.00 µg/mL
- CRP (C Reactive Protein), median value (2nd study, 10 mg/kg, serum): 1030.00 µg/mL
- Clusterin, median value (2nd study, 10 mg/kg, serum): 108.00 µg/mL
- Cystatin-C, median value (2nd study, 10 mg/kg, serum): 696.00 ng/mL
- Eotaxin, median value (2nd study, 10 mg/kg, serum): 1072.00 pg/mL
- FGF-9 (Fibroblast Growth Factor-9), median value (2nd study, 10 mg/kg, serum): 1.70 ng/mL
- Factor VII, median value (2nd study, 10 mg/kg, serum): 0.30 ng/mL
- GCP-2 (Granulocyte Chemotactic Protein-2), median value (2nd study, 10 mg/kg, serum): 0.29 ng/mL
- GST-Mu, median value (2nd study, 10 mg/kg, serum): 1190.00 ng/mL
- Growth Hormone, median value (2nd study, 10 mg/kg, serum): 3.10 ng/mL
- IL-1beta (Interleukin-1beta), median value (2nd study, 10 mg/kg, serum): 0.56 ng/mL
- IL-2 (Interleukin-2), median value (2nd study, 10 mg/kg, serum): 22.00 pg/mL
- IL-5 (Interleukin-5), median value (2nd study, 10 mg/kg, serum): 0.24 ng/mL
- IL-7 (Interleukin-7), median value (2nd study, 10 mg/kg, serum): 0.06 ng/mL
- IL-10 (Interleukin-10), median value (2nd study, 10 mg/kg, serum): 362.00 pg/mL
- IL-18 (Interleukin-18), median value (2nd study, 10 mg/kg, serum): 0.43 ng/mL
- IP-10 (Inducible Protein-10), median value (2nd study, 10 mg/kg, serum): 41.00 pg/mL
- IgA (Immunoglobulin A), median value (2nd study, 10 mg/kg, serum): 4.30 µg/mL
- Insulin, median value (2nd study, 10 mg/kg, serum): 14.50 uIU/mL
- LIF (Leukemia Inhibitory Factor), median value (2nd study, 10 mg/kg, serum): 67.00 pg/mL
- Leptin, median value (2nd study, 10 mg/kg, serum): 1.35 ng/mL
- Lymphotactin, median value (2nd study, 10 mg/kg, serum): 63.00 pg/mL
- M-CSF (Macrophage-Colony Stimulating Factor), median value (2nd study, 10 mg/kg, serum): 1400.00 ng/mL
- MCP-1 (Monocyte Chemoattractant Protein-1), median value (2nd study, 10 mg/kg, serum): 1020.00 pg/mL
- MCP-3 (Monocyte Chemoattractant Protein-3), median value (2nd study, 10 mg/kg, serum): 659.00 pg/mL
- MCP-5 (Monocyte Chemoattractant Protein-5), median value (2nd study, 10 mg/kg, serum): 0.72 pg/mL
- MDC (Macrophage-Derived Chemokine), median value (2nd study, 10 mg/kg, serum): 0.12 pg/mL
- MIP-1alpha (Macrophage Inflammatory Protein-1alpha), median value (2nd study, 10 mg/kg, serum): 127.00 ng/mL
- MIP-1beta (Macrophage Inflammatory Protein-1beta), median value (2nd study, 10 mg/kg, serum): 0.01 pg/mL
- MIP-1gamma (Macrophage Inflammatory Protein-1gamma), median value (2nd study, 10 mg/kg, serum): 19.00 ng/mL
- MIP-2 (Macrophage Inflammatory Protein-2), median value (2nd study, 10 mg/kg, serum): 0.22 pg/mL
- MIP-3beta (Macrophage Inflammatory Protein-3beta), median value (2nd study, 10 mg/kg, serum): 29.70 ng/mL
- MPO (Myeloperoxidase), median value (2nd study, 10 mg/kg, serum): 533.00 ng/mL
- Myoglobin, median value (2nd study, 10 mg/kg, serum): 520.00 ng/mL
- NGAL (Lipocalin-2), median value (2nd study, 10 mg/kg, serum): 0.15 ng/mL
- OSM (Oncostatin M), median value (2nd study, 10 mg/kg, serum): 19.10 ng/mL
- Osteopontin, median value (2nd study, 10 mg/kg, serum): 255.00 ng/mL
- RANTES (Regulation Upon Activation, Normal T-Cell Expressed and Secreted), median value (2nd study, 10 mg/kg, serum): 10.60 pg/mL
- SAP (Serum Amyloid P), median value (2nd study, 10 mg/kg, serum): 403.00 µg/mL
- SCF (Stem Cell Factor), median value (2nd study, 10 mg/kg, serum): 11.30 pg/mL
- SGOT (Serum Glutamic-Oxaloacetic Transaminase), median value (2nd study, 10 mg/kg, serum): 8.53 µg/mL
- TIMP-1 (Tissue Inhibitor of Metalloproteinase Type-1), median value (2nd study, 10 mg/kg, serum): 0.24 ng/mL
- TNF-alpha (Tumor Necrosis Factor-alpha), median value (2nd study, 10 mg/kg, serum): 4.45 ng/mL
- TPO (Thrombopoietin), median value (2nd study, 10 mg/kg, serum): 119.00 ng/mL
- Tissue Factor, median value (2nd study, 10 mg/kg, serum): 0.06 ng/mL
- VCAM-1 (Vascular Cell Adhesion Molecule-1), median value (2nd study, 10 mg/kg, serum): 353.00 ng/mL
- VEGF (Vascular Endothelial Cell Growth Factor), median value (2nd study, 10 mg/kg, serum): 78.00 pg/mL
- Apo A1 (Apolipoprotein A1), median value (2nd study, 10 mg/kg): 6.20 µg/mL
- reversal of chronic mild stress induced changes in serum inflammatory markers / cytokine levels (listed as gaboxadol): dose dependently was able to reverse most of the chronic mild stress induced changes in cytokine levels; also recorded: significantly reversed the stress-induced alterations in serum markers toward levels found in non-stressed controls; also recorded: dose dependently is able to reverse or partially reverse changes at most in inflammatory parameters induced by chronic mild stress
